Data as given in US7727960B2, “C5a receptor antagonists” (Jerini AG, priority 2003, dated 2010).
Like-named read-outs stand apart in the source and are kept apart here. Starred links: 1 amine or outer side, 2 acyl side, 3 side chain; linkers in the order of their positions; H or OH if unused. Positions of bridges follow the written chain, without caps; N, C: chain ends. Non-standard residues stand in square brackets, D forms with d. Residues, ends and D or L forms follow the SMILES beside them. No end group written: not given here. *: point of attachment. X2 = COC1O[C@H](C(=O)[*:2])[C@@H](O)[C@H](O)[C@H]1N[*:1]; Phe(4-NH2) = Nc1ccc(C[C@H](N)C(=O)O)cc1; Hydrocinnamoyl = O=C(CCc1ccccc1)*; Hyp = O=C(O)[C@@H]1C[C@@H](O)CN1; Cha = N[C@@H](CC1CCCCC1)C(=O)O; dCha = N[C@H](CC1CCCCC1)C(=O)O; AllylGly = C=CC[C@H](N)C(=O)O; Nle = CCCC[C@H](N)C(=O)O; Orn = NCCC[C@H](N)C(=O)O; Aze = O=C(O)[C@@H]1CCN1

Assays:
human C5aR (CD88) [1] = target: T1, human C5aR (CD88) (Homo sapiens, UniProt P21730); experiment: Determination of EC50 values in an enzyme release assay (agonistic activity, no C5a added); assay type: cell-based; settings: for agonistic activity (in words): cellular assay, up to a concentration of at least 1430 nM
T1 construct: expressed in transfected cells; host or cells: rat basophilic leukemia cells (RBL)
T1 sequence (P21730 1-350): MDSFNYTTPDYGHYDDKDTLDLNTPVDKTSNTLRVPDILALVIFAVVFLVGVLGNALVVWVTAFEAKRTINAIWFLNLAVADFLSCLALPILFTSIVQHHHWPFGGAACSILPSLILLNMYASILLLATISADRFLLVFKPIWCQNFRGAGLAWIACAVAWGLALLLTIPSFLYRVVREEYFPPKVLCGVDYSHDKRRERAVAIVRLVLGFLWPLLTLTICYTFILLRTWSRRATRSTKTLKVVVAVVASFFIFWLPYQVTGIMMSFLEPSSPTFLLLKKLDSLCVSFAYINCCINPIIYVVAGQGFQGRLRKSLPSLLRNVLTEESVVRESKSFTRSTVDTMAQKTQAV
Method: The determination of the EC50 value was performed in a way similar to the procedure described in example 11, with the only exception that 30 μl of the compound to be tested were mixed with 75 μl of the cell suspension described in example 11. There was no preincubation or addition of C5a for stimulation of the enzyme release.

human C5aR (CD88) [2] = target: T1, human C5aR (CD88); experiment: Determination of the IC50 value in an enzyme release assay (functional assay, antagonistic activity); assay type: cell-based; settings: for IC50-value compared to compound 40 (in words): arginine replaced by hydrophobic substitutions
[3] = Solubility determination for selected C5aR-antagonists; assay type: physicochemical; settings: for Solubility in 20 mM HEPES pH 7.4: 20 mM HEPES pH 7.4, 24 h at RT; for solubility: aqueous HEPES buffer (pH 7.4)
Method: Solubility of compounds was determined by the following procedure: 20 μl of a 10 mM stock solution (in DMSO) of the compound were diluted in 980 μl of the solvent to be tested. After incubation for 24 h at RT under shaking the samples are centrifuged at 11.000 rpm in an Eppendorf centrifuge. The supematant is determined by photometry. […] Therefor the compound was suspended at 10 mg/ml in the solvent systems of choice. The undissolved part was removed by centrifugation after 24 h. The UV-absorption of the supernatant was measured and compared to a respective reference value 60% MeOH).

human C5aR (CD88) [4] = target: T2, human C5aR (CD88) (human, UniProt P21730 1-350); experiment: cell-based or functional assay
T2 sequence (looked up): T1 sequence (P21730 1-350)

human C5aR (CD88) [5] = target: T2, human C5aR (CD88); experiment: cell-based or functional assay; remark: listed apart in the source
[6] = noteworthy = IC50 of less than 200 nM in the functional assay

Molecule: CC(=O)N[C@@H](Cc1ccccc1)C(=O)N[C@H]1CCCNC(=O)[C@H](Cc2ccccc2)NC(=O)[C@H](Cc2c[nH]c3ccccc23)NC(=O)[C@@H](CC2CCCCC2)NC(=O)[C@@H]2CCCN2C1=O [Compound 1, Ac-Phe-[Orn-Pro-cha-Trp-Phe]] (Ac-F[Orn]P[dCha]WF; lactam 2-C)
- agonistic activity (in words) (human C5aR (CD88) [1]): pure antagonists
- IC50-value compared to compound 40 (in words) (human C5aR (CD88) [2]): without a significant increase of the IC50-value
- inhibitory activity (in words) (human C5aR (CD88) [2]; [6]): noteworthy inhibitory activity
- Solubility in 20 mM HEPES pH 7.4 [3]: 8 % of 200 μM
- solubility [3]: 8%

Molecule: CC(=O)N[C@@H](Cc1ccccc1)C(=O)N[C@H]1CCCNC(=O)[C@H](Cc2ccccc2)NC(=O)[C@H](Cc2c[nH]c3ccccc23)NC(=O)[C@@H](CC2CCCCC2)NC(=O)[C@@H]2C[C@@H](O)CN2C1=O [Compound 2, Ac-Phe-[Orn-Hyp-cha-Trp-Phe]] (Ac-F[Orn][Hyp][dCha]WF; lactam 2-C)
- agonistic activity (in words) (human C5aR (CD88) [1]): pure antagonists
- inhibitory activity (in words) (human C5aR (CD88) [2]): noteworthy inhibitory activity
- Solubility in 20 mM HEPES pH 7.4 [3]: 13 % of 200 μM
- solubility [3]: 13%

Molecule: CCCC[C@@H]1NC(=O)[C@H](Cc2c[nH]c3ccccc23)NC(=O)[C@@H](CC2CCCCC2)NC(=O)[C@@H]2CCCN2C(=O)[C@@H](NC(=O)[C@H](Cc2ccccc2)NC(=O)[C@H]2OC(OC)[C@H](NC(C)=O)[C@@H](O)[C@@H]2O)CCCNC1=O (stereo partly drawn) [Compound 4, X-Phe-[Orn-Pro-cha-Trp-Nle]; X = 2-acetamido-1-methyl-glucuronyl] (Ac-[X2]F[Orn]P[dCha]W[Nle]; lactam 3-C)
- Solubility in 20 mM HEPES pH 7.4 [3]: 84 % of 200 μM
- solubility [3]: 84%

Molecule: CCCC[C@@H]1NC(=O)[C@H](Cc2c[nH]c3ccccc23)NC(=O)[C@@H](CC2CCCCC2)NC(=O)[C@@H]2CCCN2C(=O)[C@@H](NC(=O)[C@H](Cc2ccccc2)NC(C)=O)CCCNC1=O [Compound 28, Ac-Phe-[Orn-Pro-cha-Trp-Nle]] (Ac-F[Orn]P[dCha]W[Nle]; lactam 2-C)
- IC50-value compared to compound 40 (in words) (human C5aR (CD88) [2]): without a significant increase of the IC50-value
- inhibitory activity (in words) (human C5aR (CD88) [2]; [6]): noteworthy inhibitory activity
- Solubility in 20 mM HEPES pH 7.4 [3]: 22 % of 200 μM
- solubility [3]: 22%

Molecule: C=CC[C@@H]1NC(=O)[C@H](Cc2c[nH]c3ccccc23)NC(=O)[C@@H](CC2CCCCC2)NC(=O)[C@@H]2CCCN2C(=O)[C@@H](NC(=O)[C@H](Cc2ccccc2)NC(C)=O)CCCNC1=O [Compound 33, Ac-Phe-[Orn-Pro-cha-Trp-Eaf]] (Ac-F[Orn]P[dCha]W[AllylGly]; lactam 2-C)
- agonistic activity (in words) (human C5aR (CD88) [1]): pure antagonists
- IC50-value compared to compound 40 (in words) (human C5aR (CD88) [2]): without a significant increase of the IC50-value
- inhibitory activity (in words) (human C5aR (CD88) [2]; [6]): noteworthy inhibitory activity

Molecule: CC(=O)N[C@@H](Cc1ccccc1)C(=O)N[C@H]1CCCNC(=O)[C@H](CCCNC(=N)N)NC(=O)[C@H](Cc2c[nH]c3ccccc23)NC(=O)[C@@H](CC2CCCCC2)NC(=O)[C@@H]2CCCN2C1=O [Compound 40, Ac-Phe-[Orn-Pro-cha-Trp-Arg], reference compound]
- Solubility in 20 mM HEPES pH 7.4 [3]: 94 % of 200 μM
- solubility [3]: 94%

Molecule: CCCC[C@@H]1NC(=O)[C@H](Cc2c[nH]c3ccccc23)NC(=O)[C@@H](CC2CCCCC2)NC(=O)[C@@H]2CCCN2C(=O)[C@@H](NC(=O)CCc2ccccc2)CCCNC1=O [Compound 41, Ph—CH2—CH2—CO-[Orn-Pro-cha-Trp-Nle]] (Hydrocinnamoyl-[Orn]P[dCha]W[Nle]; lactam 1-C)
- agonistic activity (in words) (human C5aR (CD88) [1]): pure antagonists
- inhibitory activity (in words) (human C5aR (CD88) [2]; [6]): noteworthy inhibitory activity

Molecule: CCCC[C@@H]1NC(=O)[C@H](Cc2c[nH]c3ccccc23)NC(=O)[C@@H](CC2CCCCC2)NC(=O)[C@@H]2CCCN2C(=O)[C@@H](NC(=O)[C@@H](N)Cc2ccccc2)CCCNC1=O [Compound 42, H-Phe-[Orn-Pro-cha-Trp-Nle]] (H-F[Orn]P[dCha]W[Nle]; lactam 2-C)
- agonistic activity (in words) (human C5aR (CD88) [1]): pure antagonists
- inhibitory activity (in words) (human C5aR (CD88) [2]; [6]): noteworthy inhibitory activity
- Solubility in 20 mM HEPES pH 7.4 [3]: 45 % of 200 μM

Molecule: CCCC[C@@H]1NC(=O)[C@H](Cc2c[nH]c3ccccc23)NC(=O)[C@@H](CC2CCCCC2)NC(=O)[C@@H]2CCCN2C(=O)[C@@H](NC(=O)[C@H](Cc2ccccc2)NC(=O)[C@H](CCCCN)NC(C)=O)CCCNC1=O [Compound 43, Ac-Lys-Phe-[Orn-Pro-cha-Trp-Nle]] (Ac-KF[Orn]P[dCha]W[Nle]; lactam 3-C)
- agonistic activity (in words) (human C5aR (CD88) [1]): pure antagonists
- inhibitory activity (in words) (human C5aR (CD88) [2]; [6]): noteworthy inhibitory activity
- Solubility in 20 mM HEPES pH 7.4 [3]: 93 % of 200 μM

Molecule: CC(=O)N[C@@H](Cc1ccccc1)C(=O)N[C@@H](CCCN)C(=O)N1CC[C@H]1C(=O)N[C@H](CC1CCCCC1)C(=O)N[C@@H](Cc1c[nH]c2ccccc12)C(=O)N[C@@H](Cc1ccccc1)C(N)=O [Compound 83, Ac-Phe-Orn-Aze-cha-Trp-Phe-NH2] (Ac-F[Orn][Aze][dCha]WF-NH2)
- agonistic activity (in words) (human C5aR (CD88) [1]): pure antagonists

Molecule: CC(=O)N[C@@H](Cc1ccccc1)C(=O)N[C@@H](Cc1c[nH]c2ccccc12)C(=O)N1CCC[C@H]1C(=O)N[C@H](CC1CCCCC1)C(=O)N[C@@H](Cc1c[nH]c2ccccc12)C(=O)N[C@@H](Cc1ccccc1)C(N)=O [Compound 84, Ac-Phe-Trp-Pro-cha-Trp-Phe-NH2] (Ac-FWP[dCha]WF-NH2)
- agonistic activity (in words) (human C5aR (CD88) [1]): pure antagonists

Molecule: CC(=O)N[C@@H](Cc1ccccc1)C(=O)N[C@@H](CCCNC(=N)N)C(=O)N1CCC[C@H]1C(=O)N[C@H](CC1CCCCC1)C(=O)N[C@@H](Cc1c[nH]c2ccccc12)C(=O)N[C@@H](Cc1ccccc1)C(N)=O [Compound 88, Ac-Phe-Arg-Pro-cha-Trp-Phe-NH2] (Ac-FRP[dCha]WF-NH2)
- agonistic activity (in words) (human C5aR (CD88) [1]): pure antagonists

Molecule: Ac-Phe-Orn-cha-cha-Bta-Phe-NH2
- agonistic activity (in words) (human C5aR (CD88) [1]): pure antagonists

Molecule: H-Phe-[Orn-Pro-cha-Trp-Phe]
- agonistic activity (in words) (human C5aR (CD88) [1]): pure antagonists

B1: Ac-Phe-[Orn-Pro-cha-Ala-Arg] (peptide)
peptide: Ac-F[Orn]P[dCha]AR
modifications: lactam (positions not given here); not fully specified (bridges); printed as Ac-Phe-[Orn-Pro-cha-Ala-Arg]
- IC50 activity group, enzyme release assay (human C5aR (CD88) [4]): > 2000 nM
- IC50, functional assay (human C5aR (CD88) [5]): > 30000 nM

B2: Ac-Phe-[Orn-Pro-cha-Trp-Ala] (peptide)
peptide: Ac-F[Orn]P[dCha]WA
modifications: lactam (positions not given here); not fully specified (bridges); printed as Ac-Phe-[Orn-Pro-cha-Trp-Ala]
- IC50 activity group, enzyme release assay (human C5aR (CD88) [4]): > 2000 nM
- IC50, functional assay (human C5aR (CD88) [5]): 5600 nM

B3: hrC5a: hrC5a (Sigma) used for stimulation of the enzyme release; agonist control in Table 5 (protein)
chain: TLQKKIEEIAAKYKHSVVKKCCYDGACVNNDETCEQRAARISLGPRCIKAFTECCVVASQLRANISHKDMQLGR
- EC50 (human C5aR (CD88) [1]; agonistic activity, no preincubation or addition of C5a): 2.4 nM

B4: Ac-Phe-Lys-Ala-Cha-Ala-Leu-ala-Tyr-OH (peptide)
peptide: Ac-FKA[Cha]AL[dA]Y-OH
SMILES: CC(=O)N[C@@H](Cc1ccccc1)C(=O)N[C@@H](CCCCN)C(=O)N[C@@H](C)C(=O)N[C@@H](CC1CCCCC1)C(=O)N[C@@H](C)C(=O)N[C@@H](CC(C)C)C(=O)N[C@H](C)C(=O)N[C@@H](Cc1ccc(O)cc1)C(=O)O
- IC50 activity group, enzyme release assay (human C5aR (CD88) [4]): ≤ 2000 nM
- IC50, functional assay as used in this application (human C5aR (CD88) [5]): 1300 nM

B5: Ac-Phe-[Orn-Pro-ala-Trp-Arg] (peptide)
peptide: Ac-F[Orn]P[dA]WR
modifications: lactam (positions not given here); not fully specified (bridges); printed as Ac-Phe-[Orn-Pro-ala-Trp-Arg]
- IC50 activity group, enzyme release assay (human C5aR (CD88) [4]): > 2000 nM
- IC50, functional assay (human C5aR (CD88) [5]): > 30000 nM

B6: Ac-Phe-[Orn-Pro-cha-Trp-Lys] (peptide)
peptide: Ac-F[Orn]P[dCha]WK
modifications: lactam (positions not given here); not fully specified (bridges); printed as Ac-Phe-[Orn-Pro-cha-Trp-Lys]
- IC50 activity group, enzyme release assay (human C5aR (CD88) [4]): > 2000 nM
- IC50, enzyme release assay (human C5aR (CD88) [5]): 8700 nM

B7: Ac-Phe-[Orn-Pro-cha-Trp-Paf] (peptide)
peptide: Ac-F[Orn]P[dCha]W[Phe(4-NH2)]
modifications: lactam (positions not given here); not fully specified (bridges); printed as Ac-Phe-[Orn-Pro-cha-Trp-Paf]
- IC50 activity group, enzyme release assay (human C5aR (CD88) [4]): ≤ 50 nM
- IC50, enzyme release assay (human C5aR (CD88) [5]): 30 nM
